Assay results taken from patent publication US20250129021A1, “SMALL MOLECULE PROTEIN SYNTHESIS MODULATORS” (Interdict Bio, Inc., priority 2023, published 2025).

Assays:
Format in all cases: biochemical
CCNTB1 = assay: In vitro transcription-translation (IVTT) assay, CCNTB1 reporter; conditions: HeLa S3 lysate, 2 hrs at 30° C.
Protocol: Each preparation takes 8 cell pellets (4 ml packed volume each, approximately 1.0×10^9 cells per pellet). Thaw cell pellets from −80° C. on ice for 90 mins. Lay pellets horizontally on top of the ice and rotate every 30 mins to ensure even thawing. Once thawed, add 4 mL of cold lysis buffer to each pellet, and using a serological pipet, gently pipet up and down to break up clumps. Incubate resuspended cells in ice for an additional 30 mins (plunged into ice). During 30 min incubation, rinse and RNase-zap (Ambion) glass dounces (use loose pestle “A”), gently dry and place on ice until needed. Prepare RNase-free Eppendorf tubes for spinning and for batch storage. Add batch labels to 1.5-1.7 mL RNase-free microcentrifuge tubes (labeling scheme below). Each batch will have an extra 1.5-1.7 mL RNase-free microcentrifuge tube for 40 μL of lysate, label the top of this tube (labeling scheme below). After 30 min incubation, transfer all 8 mL of cell pellet to dounce. Cell lysis is complete after douncing 100 times. Aliquot cell lysis into 1.5-1.7 mL temporary-microcentrifuge tubes. Place tubes in centrifuge with “fins” out, and spin at 1,200×g for 5 mins. After the first spin use a 1 mL pipet to resuspend each tube and repeat spin. This acts as an additional lysis step, is more vigorous and increases lysate yield. During second spin get liquid N2 and a fresh conical tube on ice. After spin is complete, transfer supernatant (lysate) from microcentrifuge tubes into the 50 mL conical tube and keep on ice. Repeat steps 10-14 for all other cell pellets until completed. Once all cell lysate has been transferred to the 50 mL conical tube pipet to mix so the solution is homogenous. Transfer 1 mL of lysate into batch-labeled microcentrifuge tubes and flash freeze in liquid nitrogen. Be sure to pipet up and down to mix throughout transfer step. Place all tubes in the […] for long-term storage.
In vitro transcription-translation assay setup: Each assay includes a master mix containing lysate and shared components, a 96-well plate containing compound titrations for testing, a 96-well DNA plate with reporter constructs to be tested, 96-well skirted PCR plates, and 96-well flat-bottom, black, fluorescent assay plates. Reaction materials setup: (A) Master mix—15 mL conical tube (3 mL of HeLa S3 Lysate described above; 0.6 mL of ThermoFisher Accessory Proteins (#88882); 1.2 ml of ThermoFisher Reaction Mix (#88882); 0.54 mL of nuclease-free Water); (B) 96-Well Master Mix+Compound Plate (Half-log dilutions (30 μM−0.1 μM) of 4 compounds of interest are prepared in 100% DMSO); 96-Well DNA Plate (Five DNA constructs are plated into single columns within the plate. Row 1 of the column contains nuclease free H2O, all other wells contain 110 ng/μL plasmid DNA). Reactions are started by mixing 155 μL of master mix and 3.5 μL of compound serial dilutions, then 9.1 μL of master mix+compound mixture is aliquoted across 5 96-well plates. Reactions begin with final addition of 2 μL of DNA for a 11.1 μL reaction volume in each well. The entire plate is sealed, and incubated for 2 hrs at 30° C. After 2 hrs, quench the assay using 45 μL of PBS, and transfer 50 μL to a flat-bottom black microplate Quantify the sfGFP and mCherry signals from each well on each plate, taking 3 reads of each plate, and perform data analysis below.
In vitro transcription-translation assay data analysis: Each plate is read three times in channels for both sfGFP and mCherry signals. The average signal across these 3 reads is then calculated for further analysis. Control wells containing no DNA reporter are subtracted from reporter wells in the same column to remove auto-fluorescence of the lysate. Then, the ratio of sfGFP/mCherry is calculated per well, and these ratios are averaged across the triplicate experiments on the same plate. Finally, the ratio of each titration concentration is normalized to the no drug control to create the normalized stalling metric. […]

MYC = assay: In vitro transcription-translation (IVTT) assay, MYC reporter; conditions: IVTT assay, HeLa S3 lysate, MYC reporter, normalized sfGFP/mCherry ratio; half-log dilutions 30 μM-0.1 μM, 2 hrs at 30° C.
In short: (§1)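 Reporter: mCherry, P2A, then 3×FLAG-target peptide-sfGFP fusion, IRES-initiated; HeLa S3 lysate IVTT; cpd dilutions 30 μM−0.1 μM half-log in 100% DMSO (dilution-plate conc); DNA added last; 2 h, 30° C; PBS quench.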

CCND1 = assay: In vitro transcription-translation (IVTT) assay, CCND1 reporter; conditions: IVTT, HeLa S3 lysate, 2 hrs at 30° C.
In short: as §1

MCL-1 = assay: In vitro transcription-translation (IVTT) assay, MCL-1 reporter; conditions: IVTT, HeLa S3 lysate, 2 hrs at 30° C.; read-out: MCL1 IC50
In short: as §1

Row | Compound | IC50 (CCNTB1) [µM] | IC50 (CCND1) [µM] | IC50 (MCL-1) [µM] | IC50 (MYC) [µM]
1 | COc1ccc(C[C@H]2NC[C@H](O)[C@H]2OC(=O)NCc2ccnc3c2CCN3)cc1 [V188360, (2R,3S,4S)-4-hydroxy-2-[(4-methoxyphenyl)methyl]pyrrolidin-3-yl N-{1H,2H,3H-pyrrolo[2,3-b]pyridin-4-ylmethyl}carbamate] | < 10 | < 10 | < 10 | < 10
2 | COc1ccc(C[C@H]2NC[C@H](O)[C@H]2OC(=O)NC2CC3(CCNC3)C2)cc1 (stereo partly drawn) [V190538, (2R,3S,4S)-4-hydroxy-2-[(4-methoxyphenyl)methyl]pyrrolidin-3-yl N-{6-azaspiro[3.4]octan-2-yl}carbamate] | > 30 | > 30 | > 30 | > 30
3 | COc1ccc(C[C@H]2NC[C@H](O)[C@H]2OC(=O)NCc2ccc(CN)cc2)cc1 [V188322, (2R,3S,4S)-4-hydroxy-2-[(4-methoxyphenyl)methyl]pyrrolidin-3-yl N-{[4-(aminomethyl)phenyl]methyl}carbamate] | < 10 | < 10 | < 10 | < 10
4 | COc1ccc(C[C@H]2NC[C@H](O)[C@H]2OC(=O)NCc2ccc(F)c(F)c2)cc1 [V190408, (2R,3S,4S)-4-hydroxy-2-[(4-methoxyphenyl)methyl]pyrrolidin-3-yl N-[(3,4-difluorophenyl)methyl]carbamate] | < 10 | < 10 | < 10 | < 10
5 | COc1ccc(C[C@H]2NC[C@H](O)[C@H]2OC(=O)NCC2(F)CC2)cc1 [V188381, (2R,3S,4S)-4-hydroxy-2-[(4-methoxyphenyl)methyl]pyrrolidin-3-yl N-[(1-fluorocyclopropyl)methyl]carbamate] | < 10 | 10 to 20 | < 10 | < 10
6 | O=C(NCc1cccc(F)c1)O[C@@H]1[C@@H](O)CN[C@@H]1Cc1ccc(-c2cncs2)cc1 [V190546, (2R,3S,4S)-4-hydroxy-2-{[4-(1,3-thiazol-5-yl)phenyl]methyl}pyrrolidin-3-yl N-[(3-fluorophenyl)methyl]carbamate] | < 10 | < 10 | < 10 | < 10
7 | COc1ccc(C[C@H]2NC[C@H](O)[C@H]2OC(=O)NCC23CC(N)(C2)C3)cc1 [V188323, (2R,3S,4S)-4-hydroxy-2-[(4-methoxyphenyl)methyl]pyrrolidin-3-yl N-({3-aminobicyclo[1.1.1]pentan-1-yl}methyl)carbamate] | < 10 | 20 to 30 | 20 to 30 | 10 to 20
8 | COc1ccc(C[C@H]2NC[C@H](O)[C@H]2OC(=O)NCC(=O)NCC(=O)O)cc1 [V188018, {2-[({[(2R,3S,4S)-4-hydroxy-2-[(4-methoxyphenyl)methyl]pyrrolidin-3-yl]oxy}carbonyl)amino]acetamido}acetic Acid] | > 30 | > 30 | > 30 | 10 to 20
9 | COc1ccc(C[C@H]2NC[C@H](O)[C@H]2OC(=O)NCc2cnoc2)cc1 [V188383, (2R,3S,4S)-4-hydroxy-2-[(4-methoxyphenyl)methyl]pyrrolidin-3-yl N-(1,2-oxazol-4-ylmethyl)carbamate] | < 10 | < 10 | < 10 | < 10
10 | COc1ccc(C[C@H]2NC[C@H](O)[C@H]2OC(=O)NCCn2nc(C)cc2C)cc1 [V190415, (2R,3S,4S)-4-hydroxy-2-[(4-methoxyphenyl)methyl]pyrrolidin-3-yl N-[2-(3,5-dimethylpyrazol-1-yl)ethyl]carbamate] | > 30 | > 30 | > 30 | > 30
11 | COc1ccc(C[C@H]2NC[C@H](O)[C@H]2OC(=O)NCc2ccc(C3CCNC3)cc2)cc1 (stereo partly drawn) [V188354, (2R,3S,4S)-4-hydroxy-2-[(4-methoxyphenyl)methyl]pyrrolidin-3-yl N-{[4-(pyrrolidin-3-yl)phenyl]methyl}carbamate] | < 10 | < 10 | < 10 | < 10
12 | O=C(NCC[C@@H]1CCCN1)O[C@@H]1[C@@H](O)CN[C@@H]1Cc1ccc(-c2ccc(F)c(F)c2)cc1 [V191962, (2R,3S,4S)-2-({3′,4′-difluoro-[1,1′-biphenyl]-4-yl}methyl)-4-hydroxypyrrolidin-3-yl N-{2-[(2S)-pyrrolidin-2-yl]ethyl}carbamate] | > 30 | > 30 | > 30 | > 30
13 | COc1ccc(C[C@H]2NC[C@H](O)[C@H]2OC(=O)NC[C@H]2CCN(C)C2)cc1 [V188306] | < 10 | < 10 | < 10 | < 10
14 | Cn1cc(-c2ccc(C[C@H]3NC[C@H](O)[C@H]3OC(=O)NCc3ccccc3)cc2)nn1 [V188392, (2R,3S,4S)-4-hydroxy-2-{[4-(1-methyl-1,2,3-triazol-4-yl)phenyl]methyl}pyrrolidin-3-yl N-benzylcarbamate] | < 10 | < 10 | < 10 | < 10

Further lines, with some results ahead:

Row | IC50 (CCNTB1) [µM] | IC50 (CCND1) [µM] | IC50 (MCL-1) [µM] | Compound | IC50 (MYC) [µM]
15 | 20 to 30 | > 30 | > 30 | O=C(NCc1cccc(F)c1)O[C@@H]1[C@@H](O)CN[C@@H]1Cc1ccc(OC(F)(F)F)cc1 [V190509, (2R,3S,4S)-4-hydroxy-2-(4-(trifluoromethoxy)benzyl)pyrrolidin-3-yl (3-fluorobenzyl)carbamate] | > 30
16 | < 10 | 10 to 20 | < 10 | COc1ccc(C[C@H]2NC[C@H](O)[C@H]2OC(=O)NCc2ccccc2F)cc1 [V190520, (2R,3S,4S)-4-hydroxy-2-[(4-methoxyphenyl)methyl]pyrrolidin-3-yl N-[(2-fluorophenyl)methyl]carbamate] | < 10
17 | < 10 | < 10 | < 10 | O=C(NCc1cccc(F)c1)O[C@@H]1[C@@H](O)CN[C@@H]1Cc1ccc(-c2ncco2)cc1 [V190514, (2R,3S,4S)-4-hydroxy-2-{[4-(1,3-oxazol-2-yl)phenyl]methyl}pyrrolidin-3-yl N-[(3-fluorophenyl)methyl]carbamate] | < 10
18 | < 10 | < 10 | < 10 | COc1ccc(C[C@H]2NC[C@H](O)[C@H]2OC(=O)NCc2ccccc2Cl)cc1 [V191915, (2R,3S,4S)-4-hydroxy-2-[(4-methoxyphenyl)methyl]pyrrolidin-3-yl N-[(2-chlorophenyl)methyl]carbamate] | < 10
19 | < 10 | 10 to 20 | < 10 | COc1ccc(C[C@H]2NC[C@H](O)[C@H]2OC(=O)NCc2cccc3cn[nH]c23)cc1 [V190459, (2R,3S,4S)-4-hydroxy-2-[(4-methoxyphenyl)methyl]pyrrolidin-3-yl N-(1H-indazol-7-ylmethyl)carbamate] | < 10
20 | < 10 | < 10 | < 10 | COc1ccc(C[C@H]2NC[C@H](O)[C@H]2OC(=O)NCc2ccc3cnccc3c2)cc1 [V188348, (2R,3S,4S)-4-hydroxy-2-[(4-methoxyphenyl)methyl]pyrrolidin-3-yl N-(isoquinolin-6-ylmethyl)carbamate] | < 10
